Values of other authors, collected in US6372198B1, “Dentifrice for the mineralization and remineralization of teeth” (priority 2000, dated 2002).

Test system: periodontal disease
Details: oral administration (pills, capsules, powders); certain clinical studies

## COC1=C(OC)C(=O)C(C/C=C(\C)CC/C=C(\C)CC/C=C(\C)CC/C=C(\C)CC/C=C(\C)CC/C=C(\C)CC/C=C(\C)CC/C=C(\C)CC/C=C(\C)CCC=C(C)C)=C(C)C1=O [coenzyme Q10]
  symptoms of periodontal disease, including inflammation, swelling, and bleeding of the gum tissues: alleviated the symptoms of periodontal disease
